Data from patent US11273217B2, “Cancer treatment composition combining anti-CD26 antibody and other anticancer agent” (Y's AC Co., Ltd., priority 2015, dated 2022).

How the values were obtained:
[1] = tested on: H226 cells; assay: MTT cell growth assay, H226; type: cell-based; details: gemcitabine 10^−8, 3×10^−8, or 10^−7 M and YS110 1, 3, or 10 μg/ml; day 2
Procedure: (§1) Gemcitabine was studied for its effect on the growth of a mesothelioma cell line. A mesothelioma cell line MESO1, JMN, H2452, or H226 (2×10^3 cells/well) was inoculated to a 96-well plate. One hour later, gemcitabine (10^−9, 10^−8, 10^−7, 10^−6, 10^−5, or 10^−4 M) was added thereto (N=6). 2 days later, MTT assay was conducted. Significant difference was tested by two-tailed t-test (vs Cont).
(§2) H226 cells (2×10^3 cells/well) were inoculated to a 96-well plate. One hour later, gemcitabine (0, 10^−8, 3×10^−8, or 10^−7 M) and YS110 (0, 1, 3, or 10 μg/ml) were added thereto in combination. At day 2, MTT assay was conducted. Significant difference was tested by two-tailed t-test (vs Cont). Next, interaction in concomitant use of medications was studied (n=6). The interaction between YS110 and gemcitabine used concomitantly was analyzed by two-way ANOVA.
(§3) MESO1, JMN, H2452 or H226 cells (2×10^3 cells/well were inoculated to a 96-well plate. One hour later, 3×10^−8 M or 10^−7 M gemcitabine was added thereto by concomitant use with the combination of cisplatin (0, 0.1, 0.3, or 1 μM) and pemetrexed (0, 0.03, 0.1, or 0.3 μM) (n=6). At day 2, MTT assay was conducted.
(§4) The growth inhibitory effect of gemcitabine (10^−9 to 10^−4 M) was compared using MESO1, H2452, JMN, and H226 cell lines.

[2] = tested on: H2452 cells; assay: MTT cell growth assay, H2452; type: cell-based; details: day 2
Procedure: MESO1 or H2452 cells (2×10^3 cells/well) were inoculated to a 96-well plate. One hour later, cisplatin or pemetrexed was added thereto at 10^−9, 10^−8, 10^−7, 10^−6, 10^−5, or 10^−4 M (n=6). At day 2, MTT assay was conducted.
H2452 cells (2×10^3 cells/well) were inoculated to a 96-well plate. One hour later, the combination of 0.03, 0.3, or 1 μM cisplatin and 0.1, 3, or 10 μg/ml YS110, or the combination of 0.01, 0.1, or 0.3 μM pemetrexed and 0.1, 3, or 10 μg/ml YS110 was added thereto (n=6). At day 2, MTT assay was conducted. Significant difference was tested by two-tailed t-test (vs Cont).
MESO1 cells (2×10^3 cells/well) or H2452 cells (2×10^3 cells/well) were inoculated to a 96-well plate. One hour later, 0.3 μM cisplatin-0.1 μM pemetrexed combination, or YS110 (10 μg/ml) plus the 0.3 μM cisplatin-0.1 μM pemetrexed combination was added thereto (n=6). At day 2, MTT assay was conducted. Significant difference was tested by two-tailed t-test (vs Cont).
as §1
as §2, with “H2452” for “H226”
as §3, §4

[3] = tested on: JMN cells; assay: MTT cell growth assay, JMN; type: cell-based; details: gemcitabine 3×10^−10, 10^−9, or 3×10^−8 M and YS110 1, 3, or 10 μg/ml; day 2
Procedure: as §1
as §2, with “JMN” for “H226”, “3×10^−10, 10^−9,” for “10^−8, 3×10^−8,”, “3×10^−8” for “10^−7”
as §3
The growth inhibitory effects of cisplatin (10^−9 to 10^−4 M) and pemetrexed (10^−9 to 10^−4 M) were compared using the MESO1 and JMN cell lines.
as §4

[4] = tested on: H2452 cells; assay: In vivo H2452 cell growth in SCID mice (tumor weight); details: YS110 10 mg/kg, cisplatin 0.5 mg/kg, pemetrexed 50 mg/kg, intraperitoneal, days 1 and 4; tumor weight day 7
Procedure: H2452 cells (3×10^5 cells/animal) were subcutaneously transplanted to the backs of female SCID mice. The day of transplantation was defined as day 0. YS110 (10 mg/kg) alone, cisplatin (0.5 mg/kg)-pemetrexed (50 mg/kg) used concomitantly, or YS110 (10 mg/kg) used concomitantly with the cisplatin-pemetrexed concomitant use was intraperitoneally administered to the mice twice (days 1 and 4). At day 7, their tumors were excised, and the tumor weights were measured. Significant difference was tested by two-tailed t-test (vs Cont).

[5] = tested on: H2452 cells; assay: Boyden chamber invasion assay, H2452; type: cell-based; details: cisplatin 0, 3, or 10 μM and YS110 0, 10, or 20 μg/ml; 24 hours
Procedure: MESO1 cells or H2452 cells (2.5×10^4 cells/well) were inoculated to a Boyden chamber. One hour later, cisplatin (5, 10, or 30 μM) or pemetrexed (1, 10, or 30 μM) was added thereto (n=5), followed by Boyden chamber invasion assay. 24 hours after the cell inoculation, invasive cells were stained with Diff-Quik-staining kit. Significant difference was tested by two-tailed t-test (vs Cont).
(§5) MESO1 cells or H2452 cells (2.5×10^4 cells/well) were inoculated to a Boyden chamber. One hour later, the combination of cisplatin (0, 3, or 10 μM) and pemetrexed (0, 10, or 30 μM) was added thereto (n=5), followed by Boyden chamber invasion assay. 24 hours after the cell inoculation, invasive cells were stained with Diff-Quik-staining kit. Significant difference was tested by two-tailed t-test (vs Cont).
as §5, with “H2452” for “MESO1 cells or H2452”, “YS110” for “pemetrexed”, “20 μg/ml)” for “30 μM)”, “Cont). Next, the interaction of YS110 with cisplatin-pemetrexed concomitant use was studied. The interaction was analyzed by two-way ANOVA.” for “Cont).”

[6] = in vivo; cited from earlier work

Substance: YS110: humanized anti-CD26 antibody designed based on anti-CD26 mouse antibody 14D10; SEQ ID NO: 17 and 18
- effect of YS110 on the growth inhibitory effect of gemcitabine [1]: potentiated
- effect of YS110 on the cell growth inhibitory effect of pemetrexed ([2]; 0.01, 0.1, or 0.3 μM pemetrexed and 0.1, 3, or 10 μg/ml YS110): potentiated
- effect of YS110 on the cell growth inhibitory effect of cisplatin ([2]; 0.03, 0.3, or 1 μM cisplatin and 0.1, 3, or 10 μg/ml YS110): potentiated
- effect of YS110 on the cell growth inhibitory effect of cisplatin-pemetrexed ([2]; YS110 10 μg/ml plus 0.3 μM cisplatin-0.1 μM pemetrexed): potentiated
- effect of YS110 on the growth inhibitory effect of gemcitabine ([2]; gemcitabine 10^−8, 3×10^−8, or 10^−7 M and YS110 1, 3, or 10 μg/ml): potentiated
- effect of YS110 on the growth inhibitory effect of gemcitabine [3]: potentiated
- effect of YS110 on the in vivo tumor growth inhibitory effect of cisplatin-pemetrexed [4]: potentiated
- effect of YS110 on the cell invasion inhibitory action of cisplatin-pemetrexed [5]: synergistically potentiated
- safety in phase I clinical trial [6]: demonstrated its safety
